Patent US11149037B2, “Pyrazole MAGL inhibitors” (H. Lundbeck A/S, priority 2017, dated 2021)

Columns and labels:
Assay type in all cases: biochemical
FAAH [1] = target: FAAH (Mus musculus (Mouse), UniProt O08914); assay: In vitro competitive activity-based protein profiling, mouse proteomes (brain membrane fraction or cell lysates); details: mouse proteome, read-out: FAAH % inh. 1 μM (mouse)
Outline: (§1)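 Activity of MAGL and FAAH was quantified from fluorescent gel band intensities. Beforehand, inhibitors at several concentrations competed against subsequent probe labelling (FP-Rh, JW912 or HT-01) in species-matched proteomes, each step 30 min at 37° C.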

MAGL [2] = target: MAGL (Mus musculus (Mouse), UniProt O35678); assay: as above; details: mouse proteome, read-out: MAGL % inh. 1 μM (mouse)
MAGL (Mus musculus (Mouse), UniProt O35678), sequence (O35678 whole entry): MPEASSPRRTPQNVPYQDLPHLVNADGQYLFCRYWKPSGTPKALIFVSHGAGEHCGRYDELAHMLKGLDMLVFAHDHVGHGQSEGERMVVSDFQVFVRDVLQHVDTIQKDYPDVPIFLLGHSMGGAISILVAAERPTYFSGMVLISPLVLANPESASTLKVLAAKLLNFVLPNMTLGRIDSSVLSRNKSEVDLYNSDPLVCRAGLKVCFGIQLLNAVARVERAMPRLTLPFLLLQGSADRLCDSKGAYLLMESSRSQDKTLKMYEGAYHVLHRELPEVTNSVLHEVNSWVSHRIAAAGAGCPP
Outline: as §1

MAGL [3] = target: MAGL (Homo sapiens (Human), UniProt Q99685); assay: In vitro competitive activity-based protein profiling, human proteomes (prefrontal cortex or PC3 cell membrane fractions); details: human proteome; for inhibition at 1 µM: read-out: MAGL % inh. 1 μM (human)
MAGL (Homo sapiens (Human), UniProt Q99685), sequence (Q99685 whole entry): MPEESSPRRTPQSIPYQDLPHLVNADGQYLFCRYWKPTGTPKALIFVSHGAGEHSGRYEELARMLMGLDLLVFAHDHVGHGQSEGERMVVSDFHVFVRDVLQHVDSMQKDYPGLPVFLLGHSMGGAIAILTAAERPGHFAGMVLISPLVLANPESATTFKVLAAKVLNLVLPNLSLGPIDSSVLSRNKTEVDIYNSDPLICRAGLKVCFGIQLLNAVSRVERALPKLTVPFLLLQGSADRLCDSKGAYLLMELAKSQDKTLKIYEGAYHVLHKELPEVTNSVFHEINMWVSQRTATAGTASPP
Outline: as §1

FAAH [4] = target: FAAH (Homo sapiens (Human), UniProt O00519); assay: as above; details: human proteome; for inhibition at 1 µM: read-out: FAAH % inh. 1 μM (human)
FAAH (Homo sapiens (Human), UniProt O00519), sequence (O00519 whole entry): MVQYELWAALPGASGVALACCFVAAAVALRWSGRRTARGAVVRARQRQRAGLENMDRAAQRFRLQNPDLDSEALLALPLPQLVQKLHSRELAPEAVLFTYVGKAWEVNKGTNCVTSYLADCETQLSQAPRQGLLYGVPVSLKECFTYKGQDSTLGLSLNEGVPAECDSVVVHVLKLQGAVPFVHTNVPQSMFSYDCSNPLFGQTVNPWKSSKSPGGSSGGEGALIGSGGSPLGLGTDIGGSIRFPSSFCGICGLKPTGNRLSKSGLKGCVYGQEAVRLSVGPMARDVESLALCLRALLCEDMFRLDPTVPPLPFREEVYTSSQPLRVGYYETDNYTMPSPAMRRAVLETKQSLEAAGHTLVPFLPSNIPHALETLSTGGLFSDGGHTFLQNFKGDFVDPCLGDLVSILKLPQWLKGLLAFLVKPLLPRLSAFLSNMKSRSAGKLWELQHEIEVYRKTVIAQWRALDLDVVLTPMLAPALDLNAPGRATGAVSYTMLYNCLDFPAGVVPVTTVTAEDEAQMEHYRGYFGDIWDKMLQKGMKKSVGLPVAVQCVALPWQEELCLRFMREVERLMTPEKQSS
Outline: as §1

FAAH (Mus musculus (Mouse), UniProt O08914), sequence (O08914 whole entry): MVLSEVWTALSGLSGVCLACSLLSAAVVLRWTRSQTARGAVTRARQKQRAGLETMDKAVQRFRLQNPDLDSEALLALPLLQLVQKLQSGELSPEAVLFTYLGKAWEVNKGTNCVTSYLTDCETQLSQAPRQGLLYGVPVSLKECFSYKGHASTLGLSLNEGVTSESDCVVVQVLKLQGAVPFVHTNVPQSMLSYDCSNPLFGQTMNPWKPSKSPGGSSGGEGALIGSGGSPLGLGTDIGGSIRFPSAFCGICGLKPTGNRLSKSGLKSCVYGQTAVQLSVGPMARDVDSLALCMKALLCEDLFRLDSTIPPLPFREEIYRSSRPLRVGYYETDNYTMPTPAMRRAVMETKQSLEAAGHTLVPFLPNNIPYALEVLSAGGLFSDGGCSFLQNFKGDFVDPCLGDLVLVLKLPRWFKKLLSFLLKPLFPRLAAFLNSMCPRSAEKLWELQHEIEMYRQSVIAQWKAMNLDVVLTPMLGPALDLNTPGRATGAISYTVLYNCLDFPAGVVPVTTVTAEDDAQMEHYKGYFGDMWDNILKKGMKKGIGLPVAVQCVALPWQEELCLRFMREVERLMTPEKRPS

inhibition at 1 µM (FAAH [1]) | inhibition at 1 µM (MAGL [2]) | inhibition at 1 µM (MAGL [3]) | inhibition at 1 µM (FAAH [4]) | IC50 (MAGL [3]) | IC50 (FAAH [4]) | inhibition at 10 µM (MAGL [3]; 10 μM, read-out: MAGL % inh. (human) @ 10 μM) | inhibition at 50 µM (MAGL [3]; 50 μM, read-out: MAGL % inh. (human) @ 50 μM) | SMILES
> 75% | > 75% | > 75% | > 75% | < 0.1 µM | 0.1 to 1 µM | – | – | CN(Cc1cc(Cl)ccc1C(F)(F)F)[C@H]1C[C@@H]2CN(C(=O)n3ccc(NS(C)(=O)=O)n3)C[C@@H]2C1 [Example 51, N-(1-((3aR,5r,6aS)-5-((5-Chloro-2-(trifluoromethyl)benzyl)(methyl)amino)octahydrocyclopenta[c]pyrrole-2-carbonyl)-1H-pyrazol-3-yl)methanesulfonamide]
0 to 25% | 0 to 25% | > 75% | 0 to 25% | – | – | – | – | CS(=O)(=O)Nc1ccn(C(=O)N2CCC3(CCN(Cc4ccc(Cl)cc4)C3)CC2)n1 [Example 164, N-(1-(2-(4-Chlorobenzyl)-2,8-diazaspiro[4.5]decane-8-carbonyl)-1H-pyrazol-3-yl)methanesulfonamide]
0 to 25% | 0 to 25% | – | 0 to 25% | – | – | 0 to 25% | – | CS(=O)(=O)Nc1ccn(C(=O)N2CC3CN(Cc4cc(Cl)ccc4C(F)(F)F)CC3C2)n1 (stereo not drawn) [Example 45, N-(1-(5-(5-Chloro-2-(trifluoromethyl)benzyl)octahydropyrrolo[3,4-c]pyrrole-2-carbonyl)-1H-pyrazol-3-yl)methanesulfonamide]
0 to 25% | 0 to 25% | 50 to 75% | 25 to 50% | – | – | – | – | CS(=O)(=O)Nc1ccn(C(=O)N2CCC3(CCN(Cc4ccc(N5CC6COCC6C5)c(Cl)c4)C3)CC2)n1 (stereo not drawn) [Example 160, N-(1-(2-(3-Chloro-4-(tetrahydro-1H-furo[3,4-c]pyrrol-5(3H)-yl)benzyl)-2,8-diazaspiro[4.5]decane-8-carbonyl)-1H-pyrazol-3-yl)methanesulfonamide]
25 to 50% | > 75% | – | – | < 0.1 µM | 1 to 10 µM | – | – | CC(=O)Nc1ccn(C(=O)N2CCC3(CCCN3Cc3cc4cc(Cl)ccc4[nH]3)CC2)n1 [Example 38, N-(1-(1-((5-Chloro-1H-indol-2-yl)methyl)-1,8-diazaspiro[4.5]decane-8-carbonyl)-1H-pyrazol-3-yl)acetamide]
> 75% | > 75% | > 75% | > 75% | < 0.1 µM | 0.1 to 1 µM | – | – | CS(=O)(=O)Nc1ccn(C(=O)N2CCN(Cc3cccc(Oc4ccc(Cl)cc4)c3)CC2)n1 [Example 149, N-(1-(4-(3-(4-Chlorophenoxy)benzyl)piperazine-1-carbonyl)-1H-pyrazol-3-yl)methanesulfonamide]
> 75% | > 75% | > 75% | 25 to 50% | – | – | – | – | CC(=O)Nc1ccn(C(=O)N2CC3CN(Cc4cc(Cl)cc(N5CCOCC5)c4)CC3C2)n1 (stereo not drawn) [Example 167, N-(1-(5-(3-Chloro-5-morpholinobenzyl)octahydropyrrolo[3,4-c]pyrrole-2-carbonyl)-1H-pyrazol-3-yl)acetamide]
> 75% | > 75% | – | – | < 0.1 µM | 0.1 to 1 µM | – | – | CC(=O)Nc1ccn(C(=O)N2CC3CN(Cc4cccc(Oc5ccccc5)c4)CC3C2)n1 (stereo not drawn) [Example 173, N-(1-(5-(3-Phenoxybenzyl)octahydropyrrolo[3,4-c]pyrrole-2-carbonyl)-1H-pyrazol-3-yl)acetamide]
0 to 25% | > 75% | > 75% | 0 to 25% | – | – | – | – | CS(=O)(=O)Nc1ccn(C(=O)N2CCN(Cc3cc4ccccc4[nH]3)CC2)n1 [Example 55, N-(1-(4-((1H-Indol-2-yl)methyl)piperazine-1-carbonyl)-1H-pyrazol-3-yl)methanesulfonamide]

The remaining lines, values behind:

SMILES | inhibition at 1 µM (FAAH [1]) | inhibition at 1 µM (MAGL [2]) | inhibition at 1 µM (MAGL [3]) | inhibition at 1 µM (FAAH [4]) | IC50 (MAGL [3]) | IC50 (FAAH [4]) | inhibition at 10 µM (MAGL [3]; 10 μM, read-out: MAGL % inh. (human) @ 10 μM) | inhibition at 50 µM (MAGL [3]; 50 μM, read-out: MAGL % inh. (human) @ 50 μM)
CS(=O)(=O)Nc1ccn(C(=O)N2CCC(Oc3cccc(C(F)(F)F)c3-c3nnco3)CC2)n1 [Example 7, N-(1-(4-(2-(1,3,4-oxadiazol-2-yl)-3-(trifluoromethyl)phenoxy)piperidine-1-carbonyl)-1H-pyrazol-3-yl)methanesulfonamide] | 0 to 25% | > 75% | > 75% | 0 to 25% | – | – | – | –
CS(=O)(=O)Nc1ccn(C(=O)N2CCN(Cc3ccc(Cl)c(N4CCC(F)(F)CC4)c3)CC2)n1 [Example 147, N-(1-(4-(4-Chloro-3-(4,4-difluoropiperidin-1-yl)benzyl)piperazine-1-carbonyl)-1H-pyrazol-3-yl)methanesulfonamide] | 0 to 25% | > 75% | > 75% | 0 to 25% | – | – | – | –
CS(=O)(=O)Nc1ccn(C(=O)N2CCN(Cc3ncccc3N3CCCC3)CC2)n1 [Example 86, N-(1-(4-((3-(Pyrrolidin-1-yl)pyridin-2-yl)methyl)piperazine-1-carbonyl)-1H-pyrazol-3-yl)methanesulfonamide] | 0 to 25% | 25 to 50% | 25 to 50% | 0 to 25% | – | – | – | –
Cc1c(CN2CCN(C(=O)n3ccc(NS(C)(=O)=O)n3)CC2)[nH]c2c(Cl)cccc12 [Example 65, N-(1-(4-((7-Chloro-3-methyl-1H-indol-2-yl)methyl)piperazine-1-carbonyl)-1H-pyrazol-3-yl)methanesulfonamide] | 0 to 25% | > 75% | > 75% | 0 to 25% | – | – | – | –
CS(=O)(=O)Nc1ccn(C(=O)N2CCC(Oc3ccc(C(F)(F)F)c(N4CCC(F)CC4)c3)CC2)n1 [Example 109, N-(1-(4-(3-(4-Fluoropiperidin-1-yl)-4-(trifluoromethyl)phenoxy)piperidine-1-carbonyl)-1H-pyrazol-3-yl)methanesulfonamide] | 0 to 25% | > 75% | > 75% | 0 to 25% | – | – | – | –
CS(=O)(=O)Nc1ccn(C(=O)N2CCC3(CCN(Cc4ccc(C(F)(F)F)c(N5CCCC5)c4)C3)CC2)n1 [Example 73, N-(1-(2-(3-(Pyrrolidin-1-yl)-4-(trifluoromethyl)benzyl)-2,8-diazaspiro[4.5]decane-8-carbonyl)-1H-pyrazol-3-yl)methanesulfonamide] | 50 to 75% | > 75% | > 75% | 0 to 25% | – | – | – | –
CS(=O)(=O)Nc1ccn(C(=O)N2CCC3(CCN(Cc4ccc(N5CCCC5)cc4C(F)(F)F)C3)CC2)n1 [Example 48, N-(1-(2-(4-(Pyrrolidin-1-yl)-2-(trifluoromethyl)benzyl)-2,8-diazaspiro[4.5]decane-8-carbonyl)-1H-pyrazol-3-yl)methanesulfonamide] | 0 to 25% | 0 to 25% | – | 0 to 25% | – | – | – | 25 to 50%
CS(=O)(=O)Nc1ccn(C(=O)N2CCC(Oc3ccc(C(F)(F)F)c(OC4CCCC4)c3)CC2)n1 [Example 110, N-(1-(4-(3-(Cyclopentyloxy)-4-(trifluoromethyl)phenoxy)piperidine-1-carbonyl)-1H-pyrazol-3-yl)methanesulfonamide] | 0 to 25% | > 75% | > 75% | 0 to 25% | – | – | – | –
